{"source": "patent US20070190651A1", "about": "“Myogenic Development and Protection of Stem Cells Against Inflammation and Apoptosis By Statins and Isoprenoid Pathway Inhibitors” (Board of Regents of the University of Texas System, priority 2006, published 2007)", "key": {"H9c2 embryonic myoblasts [1]": {"tested_on": "H9c2 embryonic myoblasts", "assay": "Immunoblotting for Bad, Bcl-xL and PCNA in H9c2 embryonic myoblasts with IL-1", "assay_type": "cell-based, rat", "details": "L-mevalonate added to simvastatin + IL-1", "procedure": "Quantitation of protein bands was achieved by densitometry (Panels D, E and F, bottom). β-Tubulin staining of stripped blots was used as a control. […] PCNA, proliferating cell nuclear antigen; IL-1, interleukin-1-α; iNOS, inducible nitric oxide synthase; MnSOD, manganese superoxide dismutase.\n(§1) The rat embryonic myogenic cell line H9c2 was commercially obtained from ATCC and maintained in Dulbecco's modified Eagle's medium (GIBCO) supplemented with 10% FBS at 37° C. in 95% air and 5% CO2.\nImmunoblotting. Total proteins were isolated from rat cardiac myoblasts (H9c2 cells) or embryonic stem cells in an ice-cold lysis buffer containing 10 mmol/L Tris (tris(hydroxymethyl)aminomethane) (pH 7.4), 1% sodium dodecyl sulfate (SDS) and 1× protease inhibitor (1 mmol/L sodium orthovanadate). Proteins (15 μg/lane) were separated under the reducing conditions (125 mM Tris pH 6.8, 4% SDS, 10% glycerol, 0.006% bromophenol blue, 2% β-mercaptoethanol) by electrophoresis onto 5-10% SDS-polyacrylamide gel and electro-blotted to nitrocellulose membranes (Osmonics, Westborough, Mass.). The membranes were reversibly stained with Ponceau red (Sigma) to verify equal protein loading and/or transfer. […] Intensity of each immunoreactive protein band was quantified by densitometric analysis. […]"}, "iNOS [2]": {"tested_on": "iNOS", "assay": "Nitrite production (Griess reaction) in H9c2 cardiac myoblasts", "assay_type": "cell-based, rat", "details": "added to simvastatin + IL-1α 20 ng/mL", "procedure": "Cell cultures. H9c2 cells purchased from American Type Culture Collection (ATCC, Rockville, Md.) are spontaneously immortalized ventricular myoblasts from the rat embryo, with preservation of several electrical and biochemical characteristics found in adult cardiomyocytes. […] After certain time intervals, 100 μL/well culture media were collected for determination of nitrite production. Assay for NO Production. The activity of iNOS was determined in the culture medium by assaying nitrites, taken as an index of NO production, using the Griess reagent (1% sulphanilic acid and 0.1% N-[1-naphtyl] ethylenediamine-HCl in 5% phosphoric acid) as reported previously (4,18,19). Equal volumes of medium and Griess reagent were mixed, and the purple products quantified spectrophotometrically at 550 nm. Nitrite concentrations were determined from a linear standard curve constructed with known concentrations of sodium nitrite (0 to 40 μmol/L nitrite). Nitrite Assays. Nitrite, a stable end-product of nitric oxide, was measured by using Griess reagent (1% sulphanilic acid and 0.1% N-[1-naphtyl] ethylenediamine-HCl in 5% phosphoric acid). Equal volumes of medium and Griess reagent were mixed, and the resulting purple product quantified by spectrophotometric assay at 550 nm. Nitrite concentrations were calculated from a linear standard curve constructed with known concentrations of sodium nitrite (0-14 μmol/L nitrite) (19)."}, "NF-κB p65/RelA": {"tested_on": "NF-κB p65/RelA", "assay": "Immunoblotting for p65/RelA subunit of NF-κB, total cellular or nuclear proteins of H9c2 cells", "assay_type": "cell-based, rat", "details": "simvastatin + IL-1α + L-mevalonate"}, "H9c2 embryonic myoblasts [3]": {"tested_on": "H9c2 embryonic myoblasts", "assay": "Apoptosis assay (acridine orange and ethidium bromide) in H9c2 embryonic myoblasts", "assay_type": "cell-based, rat", "details": "mevalonate 10^−4 mol/l with IL-1 + simvastatin", "procedure": "The cells were exposed with IL-1αSimvastatin for 24 hours and then stained with two fluorochromes: acridine orange and ethidium bromide. Living (green fluorescence) and apoptotic (red fluorescence) cells were identified and counted with an Olympus fluorescence microscope connected to a computer imaging station.\nas §1\nAssays for Apoptosis. Analysis of apoptotic cells was performed by fluorescent microscopy with fluorochromes acridine orange and ethidium bromide (Sigma), as described previously (19). Apoptotic cells were discernible by their condensed, fragmented nuclei stained with both fluorochromes and were counted under a fluorescence microscope (Olympus, Center Valley, Pa.) connected to a computer imaging analysis station."}, "iNOS [4]": {"tested_on": "iNOS", "assay": "Immunoblotting for iNOS protein in cytokine-stimulated H9c2 cardiac myoblasts", "assay_type": "cell-based, rat", "details": "H9c2", "procedure": "Cell cultures. H9c2 cells purchased from American Type Culture Collection (ATCC, Rockville, Md.) are spontaneously immortalized ventricular myoblasts from the rat embryo, with preservation of several electrical and biochemical characteristics found in adult cardiomyocytes. They were cultured in DMEM medium (ATCC) supplemented with 10% heat-inactivated fetal bovine serum (FBS) in 95% air and 5% CO2 at 37° C. […] After certain time intervals, 100 μL/well culture media were collected for determination of nitrite production.\nImmunoblotting. Total proteins were isolated from rat cardiac myoblasts (H9c2 cells) or embryonic stem cells in an ice-cold lysis buffer containing 10 mmol/L Tris (tris(hydroxymethyl)aminomethane) (pH 7.4), 1% sodium dodecyl sulfate (SDS) and 1× protease inhibitor (1 mmol/L sodium orthovanadate). Proteins (15 μg/lane) were separated under the reducing conditions (125 mM Tris pH 6.8, 4% SDS, 10% glycerol, 0.006% bromophenol blue, 2% β-mercaptoethanol) by electrophoresis onto 5-10% SDS-polyacrylamide gel and electro-blotted to nitrocellulose membranes (Osmonics, Westborough, Mass.). The membranes were reversibly stained with Ponceau red (Sigma) to verify equal protein loading and/or transfer. After blocking in Tris-buffered saline (0.2 M Tris and 8% NaCl) containing 5% non-fat powdered milk and 0.1% Tween 20 for 1 hour at room temperature, the membranes were incubated overnight at 4° C. with following primary antibodies to (a) iNOS (Transduction Laboratories, Lexington, Ky.; BD Biosciences); (b) NF-κB p65/rel (Santa Cruz Biotechnologies, Santa Cruz, Calif.); (c) ser^32-phosphorylated inhibitor IκBα (Santa Cruz); (d) Bad (BD Biosciences, San Jose, Calif.); (e) Bcl-xL (BD Biosciences); (f) proliferating cell nuclear antigen (PCNA; BC Biosciences); (g) ryanodine receptor (Santa Cruze Biotechnology, Inc., Santa Cruz, Calif.); (h) α-sarcomeric actinin (Sigma); (i) myocardin A (developed by immunizing rabbits with a synthetic myocardin A peptide); (j) Tie-2 (Santa Cruz); (k) manganese superoxide dismutase (Santa Cruz); and (1) β-tubulin (Sigma). The blots were incubated with horseradish peroxidase-coupled secondary antibodies, washed and developed by using a SuperSignal West Pico Chemiluminescent Substrate Kit (Pierce, Rockford, Ill.). Intensity of each immunoreactive protein band was quantified by densitometric analysis. Cytokine-stimulated RAW 264.7 cells (Transduction Laboratories, Lexington, Ky.) were used as positive controls."}, "[5]": {"tested_on": "murine embryonic stem cells", "assay_type": "cell-based", "procedure": "At day 12, the number of contracting EB outgrowths (Panel A) and extension of beating area (Panel B) were detrmined by morphometry. The results were plotted as percentages of the total EBs counted in each well and shown as the mean ±SD for each of the 3 separate experiments. *, P<0.05 vs untreated control; #, P<0.05 vs simvastatin-treated control.\nThe murine ESC (mESC) line CCE was obtained from American Type Culture Collection (ATCC, Rockville, Md.). Murine ESCs were cultured without feeder cells in Dulbecco's modified Eagle's medium supplemented with 10% ESC-qualified Fetal Bovine Serum (FBS) (Stem Cell Technologies, Vancouver, Va.), pyruvate (Stem Cell Technologies, stock solution diluted 1:100), 2 mM L-glutamine, nonessential amino acids (Stem Cell Technologies, stock solution diluted 1:100), 100 IU/mL penicillin, 0.1 mg/mL streptomycin, and leukemia inhibitory factor (LIF) (Stem Cell Technologies). To induce differentiation, EBs were formed from undifferentiated mESCs in hanging drops of 400 cells in 20 μL of medium without LIF. After 5 days in suspension, EBs were plated on gelatin-coated dishes and cultured in cardiomyocyte-differentiation medium (Iscove's modified Eagle's medium, supplemented with 15% FBS, 2 mM L-glutamine, 5×10^−5 M β-mercaptoethanol, nonessential aminoacids, 100 IU/mL penicillin, 0.1 mg/mL streptomycin).\nStatin Treatment. […] The inhibition of endogenous cholesterol synthesis was the mechanism used for analyzing the effect of endogenous cholesterol depletion on EB differentiation. By days 8 through 12 after plating, spontaneously contracting cell clusters could be observed within the EB outgrowths. Culture media from both simvastatin-treated and untreated cells were changed each day after day 3.\nSpontaneous cardiac differentiation of mouse embryonic stem cells (mESCs) was assessed in vitro as the presence of rhythmically beating […] (EB) outgrowth. […] Thereafter, EB outgrowths were counted periodically under the inverted microscope equipped with a digital video camera, to determine whether or not they contained beating foci at different time points (days 3, 5, 7, 10, 12, and 14). At approximately day 7, contracting areas began to appear. […] Concomitant with the increased number of beating EBs, the size of the beating area for simvastatin-treated EBs increased 2-fold (evaluated at day 12) compared to that of untreated control EBs, a significant augmentation (p<0.05) (FIG. 22B)."}, "Rho kinase": {"tested_on": "Rho kinase", "details": "cited from earlier work"}, "iNOS [6]": {"tested_on": "iNOS", "details": "lovastatin pretreatment; cited from earlier work"}, "[7]": {"details": "orally administered to rats; cited from earlier work"}, "iNOS [8]": {"tested_on": "iNOS", "details": "cited from earlier work"}, "[9]": {"details": "injected subcutaneously over the calvaria of mice; cited from earlier work"}, "NF-κB": {"tested_on": "NF-κB", "details": "cited from earlier work"}}, "note": "Entries after “also recorded” stand apart in the source; their conditions may differ."}
{"smiles": "CC(O)(CCO)CC(=O)O", "note": "[L-mevalonate]", "values": [{"measurement": "effect on the simvastatin effect on Bcl-xL", "setting": "H9c2 embryonic myoblasts [1]", "value": "reversed the statin effect"}, {"measurement": "effect on nitrite production in cells treated with simvastatin plus IL-1α", "setting": "iNOS [2]", "value": "significantly increased the nitrite concentrations"}, {"measurement": "nuclear p65/rel protein levels in statin-treated, cytokine-stimulated cells", "setting": "NF-κB p65/RelA", "value": "could elevate the nuclear p65/rel protein levels"}, {"measurement": "effect on the simvastatin cytoprotective effect", "setting": "H9c2 embryonic myoblasts [3]", "value": "diminished"}, {"measurement": "effect on simvastatin inhibition of cytokine-induced iNOS protein expression", "setting": "iNOS [4]; added to simvastatin + IL-1α or TNF-α", "value": "reversibly blocked; also recorded: blocks the simvastatin inhibitory effect; also recorded: diminished the inhibitory effect of simvastatin"}, {"measurement": "cytokine-induced iNOS protein expression in the absence of simvastatin", "setting": "iNOS [4]; cytokine-stimulated, no simvastatin", "value": "no or little effect on cytokine-induced iNOS expression"}, {"measurement": "cytotoxicity in EBs", "setting": "[5]", "value": "without any cytotoxicity"}, {"measurement": "contracting EBs in the absence of simvastatin", "setting": "[5]; L-mevalonate alone", "value": "no or little effect on contracting EBs"}]}
{"smiles": "CC[C@H](C)C(=O)O[C@H]1C[C@@H](C)C=C2C=C[C@H](C)[C@H](CC[C@@H]3C[C@@H](O)CC(=O)O3)[C@H]21", "note": "[lovastatin]", "values": [{"measurement": "Rho kinase activity", "setting": "Rho kinase", "value": "inhibit the Rho kinase activity"}, {"measurement": "IL-1beta induction of iNOS", "setting": "iNOS [6]", "value": "superinduction of iNOS"}, {"measurement": "cancellous bone volume", "setting": "[7]", "value": "increased cancellous bone volume"}, {"measurement": "iNOS and cytokine expression", "setting": "iNOS [8]; rat macrophages, astrocytes, and microglia", "value": "inhibits iNOS and cytokine expression"}, {"measurement": "LPS-induced iNOS expression", "setting": "iNOS [8]; rat primary astrocytes", "value": "blocks LPS-induced iNOS expression"}, {"measurement": "bone formation", "setting": "[9]", "value": "increase bone formation"}]}
{"smiles": "CC[C@H](C)C(=O)O[C@H]1CCC=C2C=C[C@H](C)[C@H](CC[C@@H]3C[C@@H](O)CC(=O)O3)[C@H]21", "note": "[mevastatin]", "values": [{"measurement": "NF-κB activity and NF-κB-dependent VCAM and E-selectin expression", "setting": "NF-κB", "value": "inactivate NF-κB and reduce NF-κB-dependent expression of the endothelial adhesion proteins"}]}
